IC50 and Ki data for 27 molecules are collected here from ChEMBL document CHEMBL1909046, “DrugMatrix in vitro pharmacology data”.

The nature of experiment [1]: DRUGMATRIX: GABAA, Muscimol, Central radioligand binding (ligand: [3H] Muscimol). The class given is cell membranes, Rattus norvegicus, Wistar, Brain, Membrane. As to conditions: Not Active = under 50% inhibition at 10 µM.
The target of the next experiment is Adenosine receptor A2a (Homo sapiens, UniProt P29274). The experiment in a line: DRUGMATRIX: Adenosine A2A radioligand binding (ligand: […]). Format: cell membranes, HEK293, Membrane. The note with it: Not Active = under 50% inhibition at 10 µM.
In the next experiment the target is D(1A) dopamine receptor (Homo sapiens, UniProt P21728). The experiment in a line: DRUGMATRIX: Dopamine D1 radioligand binding (ligand: [3H] SCH-23390). The class given is cell membranes, CHO, Membrane. The note with it: Not Active = under 50% inhibition at 10 µM.
The next experiment deals with T1, Adenosine receptor A1 (Homo sapiens, UniProt P30542).
T1 sequence (P30542 whole entry): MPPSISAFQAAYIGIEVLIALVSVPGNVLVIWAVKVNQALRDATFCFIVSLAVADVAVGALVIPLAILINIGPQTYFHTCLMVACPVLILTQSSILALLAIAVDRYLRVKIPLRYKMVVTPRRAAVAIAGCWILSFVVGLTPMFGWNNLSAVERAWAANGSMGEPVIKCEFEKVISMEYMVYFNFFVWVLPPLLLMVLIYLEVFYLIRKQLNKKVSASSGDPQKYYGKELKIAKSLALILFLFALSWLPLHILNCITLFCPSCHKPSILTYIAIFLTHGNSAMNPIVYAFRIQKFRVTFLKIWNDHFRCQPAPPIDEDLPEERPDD
Format: cell membranes, CHO, Membrane. The note with it: cho.

For experiment [2], the target named is 5-hydroxytryptamine receptor 1B (Rattus norvegicus, UniProt P28564). The class given is cell membranes, Wistar, Cerebral cortex, Membrane. Also: in other assays of this panel Not Active means under 50% inhibition at 10 µM.
5-hydroxytryptamine receptor 1B, sequence (P28564 whole entry): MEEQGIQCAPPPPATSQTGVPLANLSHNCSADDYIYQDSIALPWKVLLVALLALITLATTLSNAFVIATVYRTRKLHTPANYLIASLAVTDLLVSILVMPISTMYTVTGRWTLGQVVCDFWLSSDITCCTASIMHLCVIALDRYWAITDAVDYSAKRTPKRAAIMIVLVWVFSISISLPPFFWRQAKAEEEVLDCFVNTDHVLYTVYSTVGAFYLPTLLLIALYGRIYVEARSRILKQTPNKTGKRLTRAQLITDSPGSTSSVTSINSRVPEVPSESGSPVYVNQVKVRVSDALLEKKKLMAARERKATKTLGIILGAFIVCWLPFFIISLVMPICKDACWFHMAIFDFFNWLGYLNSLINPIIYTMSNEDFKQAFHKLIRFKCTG

D(1A) dopamine receptor, sequence (P21728 whole entry): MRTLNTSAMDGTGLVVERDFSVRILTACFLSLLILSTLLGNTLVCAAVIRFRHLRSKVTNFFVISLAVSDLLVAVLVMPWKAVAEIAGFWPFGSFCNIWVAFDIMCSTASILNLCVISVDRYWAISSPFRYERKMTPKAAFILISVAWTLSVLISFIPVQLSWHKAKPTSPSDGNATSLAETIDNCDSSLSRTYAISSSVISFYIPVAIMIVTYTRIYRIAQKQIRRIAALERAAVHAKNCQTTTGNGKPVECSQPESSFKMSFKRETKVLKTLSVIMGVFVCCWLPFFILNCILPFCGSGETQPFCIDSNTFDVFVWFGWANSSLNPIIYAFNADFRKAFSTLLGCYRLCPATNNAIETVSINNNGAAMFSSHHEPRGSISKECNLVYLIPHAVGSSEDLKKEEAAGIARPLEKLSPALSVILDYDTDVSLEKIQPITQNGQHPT
Adenosine receptor A2a, sequence (P29274 whole entry): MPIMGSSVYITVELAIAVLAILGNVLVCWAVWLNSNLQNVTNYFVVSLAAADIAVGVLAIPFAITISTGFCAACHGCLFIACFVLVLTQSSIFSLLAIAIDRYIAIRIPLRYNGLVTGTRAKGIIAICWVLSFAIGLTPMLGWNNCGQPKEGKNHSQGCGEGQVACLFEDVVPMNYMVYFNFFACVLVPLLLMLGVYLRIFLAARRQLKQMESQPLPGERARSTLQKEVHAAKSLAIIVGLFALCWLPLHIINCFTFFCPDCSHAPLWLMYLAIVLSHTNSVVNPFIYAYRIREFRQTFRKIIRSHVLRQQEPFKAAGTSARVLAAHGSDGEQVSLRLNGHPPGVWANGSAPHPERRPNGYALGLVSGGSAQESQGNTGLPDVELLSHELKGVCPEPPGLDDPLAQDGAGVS

The term IC50 denotes the concentration that inhibits the measured activity by half. For orientation: Ki means the equilibrium dissociation constant of an inhibitor or competing ligand from its target. Take `COc1cc(/C=C/C(=O)O)ccc1O` [FERULATE]: the IC50 result (in experiment [1]; on Adenosine receptor A2a (hek293); at D(1A) dopamine receptor (cho); against Adenosine receptor A1; in experiment [2]) was “Not Active” each time. Further, the inhibition constant Ki entry in experiment [1] was “Not Active”.
For `CC(C)(C#N)c1cc(Cn2cncn2)cc(C(C)(C)C#N)c1` [ANASTROZOLE], the concentration for half-maximal inhibition (IC50) entry (in experiment [1]; at Adenosine receptor A2a (hek293); at D(1A) dopamine receptor (cho); on Adenosine receptor A1; in experiment [2]) was “Not Active” throughout. In addition, the Ki result in experiment [1] is “Not Active”.
For `COc1ccc(Cl)cc1C(=O)NCCc1ccc(S(=O)(=O)NC(=O)NC2CCCCC2)cc1` [GLYBURIDE], the concentration for half-maximal inhibition (IC50) result (in experiment [1]; at Adenosine receptor A2a (hek293); at D(1A) dopamine receptor (cho); against Adenosine receptor A1; in experiment [2]) was “Not Active” throughout. In experiment [1], the Ki entry is recorded as “Not Active”.
Take `CC(C)NCC(O)COc1ccc(CC(N)=O)cc1` (configuration not stated) [ATENOLOL]: the IC50 result (in experiment [1]; at Adenosine receptor A2a (hek293); at D(1A) dopamine receptor (cho); against Adenosine receptor A1; in experiment [2]) was “Not Active” in each case. In addition, the Ki result in experiment [1] is on record as “Not Active”.
Turning to `O=C(O)COC(=O)Cc1ccccc1Nc1c(Cl)cccc1Cl` [ACECLOFENAC], the IC50 entry (in experiment [1]; at Adenosine receptor A2a (hek293); at D(1A) dopamine receptor (cho); against Adenosine receptor A1; in experiment [2]) was “Not Active” each time. Further, in experiment [1], the Ki entry is reported as “Not Active”.
In the case of `Cl.NC[C@H]1CC[C@H](C(=O)Oc2ccc(CCC(=O)O)cc2)CC1` [CETRAXATE HYDROCHLORIDE], the half-inhibitory concentration (IC50) entry (in experiment [1]; at Adenosine receptor A2a (hek293); on D(1A) dopamine receptor (cho); at Adenosine receptor A1; in experiment [2]) was “Not Active” throughout. In experiment [1], the Ki entry is given as “Not Active”.
With `CC(=O)[C@]1(O)Cc2c(O)c3c(c(O)c2[C@@H](O[C@H]2C[C@H](N)[C@H](O)[C@H](C)O2)C1)C(=O)c1ccccc1C3=O` [IDARUBICIN], the half-maximal inhibitory concentration (IC50) result (in experiment [1]; at Adenosine receptor A2a (hek293); at D(1A) dopamine receptor (cho); at Adenosine receptor A1; in experiment [2]) was “Not Active” in each case. In addition, the Ki entry in experiment [1] is “Not Active”.
For the molecule `C[C@@H]1[C@H](O)[C@@H](C)/C=C/C=C/C=C/C=C/C=C/C=C/C=C/[C@H](O[C@@H]2O[C@H](C)[C@@H](O)[C@H](N)[C@@H]2O)C[C@@H]2O[C@](O)(C[C@@H](O)C[C@@H](O)[C@H](O)CC[C@@H](O)C[C@@H](O)CC(=O)O[C@H]1C)C[C@H](O)[C@H]2C(=O)O` [AMPHOTERICIN B], the 50% inhibitory concentration (IC50) result (in experiment [1]; at Adenosine receptor A2a (hek293); on D(1A) dopamine receptor (cho); against Adenosine receptor A1; in experiment [2]) was “Not Active” in each case. In addition, in experiment [1], the Ki entry was “Not Active”.
As for `O=C(O)c1ccccc1` [BENZOIC ACID], the IC50 result (in experiment [1]; at Adenosine receptor A2a (hek293); on D(1A) dopamine receptor (cho); against Adenosine receptor A1; in experiment [2]) was “Not Active” throughout. Moreover, the Ki result in experiment [1] is “Not Active”.
For the molecule `C[C@]12CC[C@@H](O)C[C@@H]1CC[C@@H]1[C@@H]2CC[C@]2(C)C(=O)CC[C@@H]12` [ANDROSTERONE], the half-maximal inhibitory concentration (IC50) entry (in experiment [1]; on Adenosine receptor A2a (hek293); on D(1A) dopamine receptor (cho); against Adenosine receptor A1; in experiment [2]) was “Not Active” in each case. For the same molecule, the Ki result in experiment [1] is on record as “Not Active”.
For the molecule `NCC(CC(=O)O)c1ccc(Cl)cc1` (configuration not stated) [BACLOFEN], the IC50 result (in experiment [1]; at Adenosine receptor A2a (hek293); at D(1A) dopamine receptor (cho); at Adenosine receptor A1; in experiment [2]) was “Not Active” throughout. The Ki result in experiment [1] is “Not Active”.
Turning to `O=C(O)CO` [GLYCOLIC ACID], the concentration for half-maximal inhibition (IC50) entry (in experiment [1]; at Adenosine receptor A2a (hek293); on D(1A) dopamine receptor (cho); on Adenosine receptor A1; in experiment [2]) was “Not Active” each time. Also, the Ki result in experiment [1] is on record as “Not Active”.
As to `COc1ccccc1OCCNCC(O)COc1cccc2[nH]c3ccccc3c12` (configuration not stated) [CARVEDILOL], the half-inhibitory concentration (IC50) entry is “Not Active” in experiment [1]; “Not Active” on Adenosine receptor A2a (hek293); 1500 nM on D(1A) dopamine receptor (read-out: IC50); “Not Active” on Adenosine receptor A1; 1300 nM in experiment [2] (read-out: IC50). In addition, the Ki result was “Not Active” in experiment [1], 749 nM at D(1A) dopamine receptor (read-out: Ki) and 589 nM in experiment [2] (read-out: Ki).
For `O=C(NCCN1CCOCC1)c1ccc(Cl)cc1` [MOCLOBEMIDE], the IC50 result (in experiment [1]; at Adenosine receptor A2a (hek293); on D(1A) dopamine receptor (cho); against Adenosine receptor A1; in experiment [2]) was “Not Active” throughout. Besides, the Ki entry in experiment [1] is recorded as “Not Active”.
For the molecule `C=CCO` [ALLYL ALCOHOL], the IC50 entry (in experiment [1]; at Adenosine receptor A2a (hek293); at D(1A) dopamine receptor (cho); against Adenosine receptor A1; in experiment [2]) was “Not Active” in each case. Also, the Ki entry in experiment [1] is given as “Not Active”.
Turning to `CC(C)Cc1ccc([C@H](C)C(=O)O)cc1` [DEXIBUPROFEN], the IC50 result (in experiment [1]; on Adenosine receptor A2a (hek293); at D(1A) dopamine receptor (cho); on Adenosine receptor A1; in experiment [2]) was “Not Active” throughout. In addition, the Ki entry in experiment [1] is “Not Active”.
Consider `O=c1[nH]cnc2c1ncn2[C@H]1CC[C@@H](CO)O1` [DIDANOSINE], for which the concentration for half-maximal inhibition (IC50) entry (in experiment [1]; on Adenosine receptor A2a (hek293); at D(1A) dopamine receptor (cho); against Adenosine receptor A1; in experiment [2]) was “Not Active” in each case. The Ki entry in experiment [1] is “Not Active”.
On to `CC1(COc2ccc(CC3SC(=O)NC3=O)cc2)CCCCC1` (configuration not stated) [CIGLITAZONE], for which the 50% inhibitory concentration (IC50) entry (in experiment [1]; on Adenosine receptor A2a (hek293); against Adenosine receptor A1; in experiment [2]) was “Not Active” in each case. Also, the Ki result in experiment [1] is “Not Active”.
For `CC(=O)Nc1ccc2c(c1)Cc1ccccc1-2` [2-ACETYLAMINOFLUORENE], the IC50 entry (in experiment [1]; on Adenosine receptor A2a (hek293); on D(1A) dopamine receptor (cho); against Adenosine receptor A1; in experiment [2]) was “Not Active” in each case. The inhibitory constant (Ki) entry in experiment [1] is on record as “Not Active”.
For `C[C@H](C(=O)O)c1ccc2oc(-c3ccc(F)cc3)nc2c1` [FLUNOXAPROFEN], the concentration for half-maximal inhibition (IC50) entry (in experiment [1]; on Adenosine receptor A2a (hek293); at D(1A) dopamine receptor (cho); on Adenosine receptor A1; in experiment [2]) was “Not Active” in each case. Also, the Ki result in experiment [1] is listed as “Not Active”.
For the molecule `CC(C)Cn1cnc2c(N)nc3ccccc3c21` [IMIQUIMOD], the IC50 entry in experiment [1] is “Not Active”; on Adenosine receptor A2a (read-out: IC50), 5320 nM; on D(1A) dopamine receptor (cho) it was “Not Active”; against Adenosine receptor A1 it was “Not Active”; in experiment [2] it was “Not Active”. Besides, the Ki result in experiment [1] is “Not Active”; on Adenosine receptor A2a (read-out: Ki) it was 2990 nM.
Regarding `OC[C@H]1OC2C3[C@@H](CO)OC(O[C@H]4[C@H](O)[C@@H](O)[C@@H](O[C@H]5[C@H](O)[C@@H](O)[C@@H](O[C@H]6[C@H](O)[C@@H](O)[C@@H](O[C@H]7[C@H](O)[C@@H](O)[C@@H](O[C@H]8[C@H](O)[C@@H](O)[C@@H](O[C@H]9[C@H](O)[C@@H](O)C(OC1[C@H](O)[C@H]2O)O[C@@H]9CO)O[C@@H]8CO)O[C@@H]7CO)O[C@@H]6CO)O[C@@H]5CO)O[C@@H]4CO)[C@H](O)[C@H]3O`, the IC50 result (in experiment [1]; on Adenosine receptor A2a (hek293); at D(1A) dopamine receptor (cho); against Adenosine receptor A1; in experiment [2]) was “Not Active” each time. In addition, the inhibitory constant (Ki) entry in experiment [1] was “Not Active”.
With `CCN1CCN(c2cc3c(cc2F)c(=O)c(C(=O)O)cn3C2CC2)CC1` [ENROFLOXACIN], the half-maximal inhibitory concentration (IC50) entry (in experiment [1]; at Adenosine receptor A2a (hek293); on D(1A) dopamine receptor (cho); against Adenosine receptor A1; in experiment [2]) was “Not Active” each time. Also, the inhibitory constant (Ki) result in experiment [1] is reported as “Not Active”.
As for POVIDONE, the IC50 result (in experiment [1]; on Adenosine receptor A2a (hek293); at D(1A) dopamine receptor (cho); against Adenosine receptor A1; in experiment [2]) was “Not Active” in each case. Further, the inhibitory constant (Ki) result (in experiment [1]; on Adenosine receptor A2a (hek293); on D(1A) dopamine receptor (cho); on Adenosine receptor A1; in experiment [2]) was “Not Active” in each case.
`C=C(Cl)Cl` [1,1-DICHLOROETHENE]: the half-maximal inhibitory concentration (IC50) entry (in experiment [1]; at Adenosine receptor A2a (hek293); on D(1A) dopamine receptor (cho); on Adenosine receptor A1; in experiment [2]) was “Not Active” each time. Further, in experiment [1], the Ki result is “Not Active”.
For `C#C[C@]1(O)CC[C@H]2[C@@H]3CCC4=CC(=O)CC[C@@H]4[C@H]3CC[C@@]21C` [NORETHINDRONE], the IC50 result (in experiment [1]; at Adenosine receptor A2a (hek293); on D(1A) dopamine receptor (cho); at Adenosine receptor A1; in experiment [2]) was “Not Active” throughout. For the same molecule, in experiment [1], the Ki entry is “Not Active”.
As for `Clc1cc(Cl)c(OCC#CI)cc1Cl` [HALOPROGIN], the IC50 entry (in experiment [1]; on Adenosine receptor A2a (hek293); against Adenosine receptor A1; in experiment [2]) was “Not Active” throughout. Moreover, in experiment [1], the Ki entry was “Not Active”.
